The source of these data is patent US20260250524A1, “METAL-PHENOLIC NANOPATTERNS AND METHODS OF MAKING AND USING THE SAME” (NORTHWESTERN UNIVERSITY, priority 2023, published 2026).

The series in a line: Solubility of polyphenols in water. Format: physicochemical. An excerpt: Methods of the disclosure can be used to design functional nanopatterns with tunable properties (e.g., mechanical properties that can be varied based on the strength of coordination between the metal ion and polyphenol). For example, the stability and mechanical properties of nanopatterns can be varied based on the strength of coordination between the metal ion and the polyphenol. […] The polymeric, multitopic structure of large polyphenols like TA can provide greater binding affinity to various substrates. These polyphenols also have other different characteristics, such as water solubility. […] This can broaden the range of ink concentrations that are suitable for tip-directed patterning.
Other inks based on different polyphenols (GA, ECG, and EGCG) were prepared according to similar protocols. […] However, ECG had limited solubility of <1 mg/mL in water. Therefore, 0.5 mg/mL was used for ECG-based inks. Unless otherwise noted, the concentration of polyphenol was 5 mg mL^−1 and the molar ratio of polyphenol to metal ion was 1:1. For GA-based inks, the molar ratio of GA to metal ion was 10:1. For the EGCG-Ni ink, the molar ratio of EGCG to Ni was 5:1. These molar ratios were determined after considering the solubility of each metal salt and the molecular weight of each polyphenol.

As usually defined, the solubility is the dissolved amount per volume that the medium holds. Higher therefore signals a readily soluble substance.

Take `O=C(OC[C@H]1O[C@@H](OC(=O)c2cc(O)c(O)c(OC(=O)c3cc(O)c(O)c(O)c3)c2)[C@H](OC(=O)c2cc(O)c(O)c(OC(=O)c3cc(O)c(O)c(O)c3)c2)[C@@H](OC(=O)c2cc(O)c(O)c(OC(=O)c3cc(O)c(O)c(O)c3)c2)[C@@H]1OC(=O)c1cc(O)c(O)c(OC(=O)c2cc(O)c(O)c(O)c2)c1)c1cc(O)c(O)c(OC(=O)c2cc(O)c(O)c(O)c2)c1` [TA, Tannic acid]: the “water solubility relative to GA, ECG, and EGCG” value (comparison in words) is on record as “substantially higher solubility”. As for `O=C(O[C@@H]1Cc2c(O)cc(O)cc2O[C@@H]1c1ccc(O)c(O)c1)c1cc(O)c(O)c(O)c1` [ECG, epicatechin gallate], for the setting “in water”, the solubility is below 1000 µg/mL.
